# Source: patent US20200375864A1, “PERIODONTAL DISEASE TREATMENT” (STRAUMANN HOLDING AG, priority 2013, published 2020)
# Entries after “also recorded” stand apart in the source; their conditions may differ.
# Tests used:
# skin = settings: 2% solution; cited from earlier work
# supragingival biofilm = experiment: 70/30 supragingival biofilm model, biofilm decontamination with antimicrobial solutions (Experiments 1 and 2); assay type: cell-based; settings: for biofilm microbiota after 24 h (CFU, FIG. 8) / immediate effect on the biofilm microbiota (CFU, FIG. 8): hydrogen peroxide 0.1% and 1%; for CFU 24 hours after cleaning agent treatment (summary, FIG. 3b) / CFU immediately after cleaning agent treatment (summary, FIG. 3a): supragingival model, experiments 1 and 2; for CFU immediately after cleaning agent treatment (summary, FIG. 3a): immediate; for immediate effect on the biofilm microbiota (CFU, FIG. 8): immediately after application, sodium hypochlorite 0.1%, 1% and 3%, detection limit <2.0E1; for immediate decontaminating effect compared to the saline control (CFU, FIG. 7) / lasting biofilm inhibiting effect, recovery of the microorganisms after 24 h (CFU, FIG. 7): Experiment 1, chlorhexidine 0.2%, hydrogen peroxide 3%; for immediate decontaminating effect compared to the saline control (CFU, FIG. 7): after dip, sodium hypochlorite 3%
# From the text: Evaluation of biofilm decontamination with various antimicrobial solutions Tested in a 70/30 supragingival biofilm model For a detailed description of the biofilm model used in this experiment, see e.g. Guggenheim et al., 2004, 2001 a; and Shapiro et al., 2002 and Guggenheim et al., 2009. […]
# subgingival biofilm = subgingival biofilm model on titanium discs, antimicrobial solutions alone, total CFU (Experiment 3); assay type: cell-based; settings: for reduction of the microbiota on the biofilms compared with the saline controls immediately after exposure (total CFU, FIG. 13): immediately after 1 min exposure, NaCIO 0.1% and 1%
# From the text: (§1) Evaluation of subgingival biofilm decontamination with various antimicrobial solutions tested in a subgingival biofilm model For a detailed description of the biofilm model used in this experiment, see e.g. Guggenheim et al., 2004, 2001 a; and Shapiro et al., 2002 and Guggenheim et al., 2009. OMZ 278, Prevotella intermedia OMZ 493, Veilonella dispar OMZ 598, Fusobacterium nucleatum OMZ 607, Streptococcus oralis OMZ 661, Treponema denticola OMZ 698, Campylobacter rectus OMZ 745, Actinomyces oris OMZ 871, Streptococcus anginosus OMZ 925, Porphyromonas gingivalis OMZ 1047, Tannerella forsythia [table] The purpose of the present biofilm experiment was to assess the efficacy of various antimicrobial solutions on a subgingival microbiota associated with periodontitis and implantitis. The antimicrobial effect was evaluated immediately and 24 h after a 1 min exposure to the test solutions to biofilms grown on titanium discs.
# [1] = test system: individual members of the biofilm consortium; experiment: subgingival biofilm model, antimicrobial solutions alone, effect on individual species (Experiment 3); assay type: cell-based; settings: NaCIO 0.1% and 1%; for P. intermedia and P. gingivalis in the following 24 h (re-growth): 24 h after treatment; for immediate effect on individual species (FIGS. 9, 10 and 11): all species, immediately after 1 min exposure
# From the text: as §1
# [2] = cited from earlier work
SMILES,"biofilm microbiota after 24 h (CFU, FIG. 8) (supragingival biofilm; Experiment 2, 24 h after dip)","CFU 24 hours after cleaning agent treatment (summary, FIG. 3b) (supragingival biofilm)","CFU immediately after cleaning agent treatment (summary, FIG. 3a) (supragingival biofilm)","reduction of the microbiota on the biofilms compared with the saline controls immediately after exposure (total CFU, FIG. 13) (subgingival biofilm; Experiment 3)","immediate effect on individual species (FIGS. 9, 10 and 11) [1]","immediate effect on the biofilm microbiota (CFU, FIG. 8) (supragingival biofilm; Experiment 2)","immediate decontaminating effect compared to the saline control (CFU, FIG. 7) (supragingival biofilm)",further results
"[H]/N=C(\N/C(=N/[H])NCCCCCCNC(=N)NC(=N)Nc1ccc(Cl)cc1)Nc1ccc(Cl)cc1 [2% chlorhexidine, chlorhexidine]",–,–,–,–,–,–,–,skin irritation (skin): irritating to the skin
"[Na+].[O-]Cl [0.1% NaCIO, Sodium hypochlorite]",in part recovered,bacterial regrowth,–,–,–,–,–,–
"[H]/N=C(\N/C(=N/[H])NCCCCCCNC(=N)NC(=N)Nc1ccc(Cl)cc1)Nc1ccc(Cl)cc1 [1% CHX, Chlorhexidine]",eradicating totally the biofilm microbiota,clear CFU reduction,no significant immediate CFU influence,only a limited effect,only a limited effect,–,–,P. intermedia and P. gingivalis in the following 24 h (re-growth) [1]: eradication
"[H]/N=C(\N/C(=N/[H])NCCCCCCNC(=N)NC(=N)Nc1ccc(Cl)cc1)Nc1ccc(Cl)cc1 [0.2% CHX, Chlorhexidine]",–,clear CFU reduction,no significant immediate CFU influence,–,–,low immediate effect,–,"reduction of the biofilm microbiota after 24 h (supragingival biofilm; Experiment 2, 24 h after dip): ~6 log steps"
"OO [3% H2O2, hydrogen peroxide]",–,–,–,only a limited effect,only a limited effect,–,–,–
"OCl [NaCIO, Sodium hypochlorite]",–,no sustained effect on its own,reduces CFU counts the most; also recorded: strong immediate CFU reduction,near or to the detection limit,near or to the detection limit,–,very impressive,"immediate effect on the biofilm microbiota (CFU, FIG. 8) (supragingival biofilm; Experiment 2, listed as sodium hypochlorite): below the detection level; CFU immediately after cleaning agent treatment (summary, FIG. 3a) (subgingival biofilm; subgingival model, experiment 3, immediate): strong immediate CFU reduction; P. intermedia and P. gingivalis in the following 24 h (re-growth) [1]: eradication"
"OO [H2O2, hydrogen peroxide]",re-established to the level of the controls,–,–,–,–,low decontaminating action,very modest,"lasting biofilm inhibiting effect, recovery of the microorganisms after 24 h (CFU, FIG. 7) (supragingival biofilm; 24 h after dip): no or minute lasting biofilm inhibiting action"
"[H]/N=C(\N/C(=N/[H])NCCCCCCNC(=N)NC(=N)Nc1ccc(Cl)cc1)Nc1ccc(Cl)cc1 [CHX, Chlorhexidine]",–,–,–,–,–,–,very modest,"lasting biofilm inhibiting effect, recovery of the microorganisms after 24 h (CFU, FIG. 7) (supragingival biofilm; 24 h after dip): strong lasting effect; strong sustained effect on the total CFU after 24 h / biofilm re-growth (subgingival biofilm; Experiment 3, 24 h after 1 min exposure): not observed"
"N=C(NCCCCCCNC(=N)NC(=N)Nc1ccc(Cl)cc1)NC(=N)Nc1ccc(Cl)cc1.O=C(O)[C@H](O)[C@@H](O)[C@H](O)[C@H](O)CO.O=C(O)[C@H](O)[C@@H](O)[C@H](O)[C@H](O)CO [CHX gluconate, Chlorhexidine gluconate]",–,–,–,–,–,–,–,solubility in water [2]: water-soluble
"OCl [3.0% sodium hypochlorite, Sodium hypochlorite]",no detectable microorganisms,–,–,–,–,no detectable microorganisms,–,–
